Results reported in article PMC3371734 (The Journal of Experimental Medicine, 2012).

Legend:
α3 GlyR [1] = target: T1, α3 GlyR (Rattus norvegicus, UniProt P24524); experiment: whole-cell patch clamp, potentiation of glycine current; format: cell-based; conditions: HEK 293 cells, allosteric potentiator, sustained application
T1 sequence (P24524 34-464): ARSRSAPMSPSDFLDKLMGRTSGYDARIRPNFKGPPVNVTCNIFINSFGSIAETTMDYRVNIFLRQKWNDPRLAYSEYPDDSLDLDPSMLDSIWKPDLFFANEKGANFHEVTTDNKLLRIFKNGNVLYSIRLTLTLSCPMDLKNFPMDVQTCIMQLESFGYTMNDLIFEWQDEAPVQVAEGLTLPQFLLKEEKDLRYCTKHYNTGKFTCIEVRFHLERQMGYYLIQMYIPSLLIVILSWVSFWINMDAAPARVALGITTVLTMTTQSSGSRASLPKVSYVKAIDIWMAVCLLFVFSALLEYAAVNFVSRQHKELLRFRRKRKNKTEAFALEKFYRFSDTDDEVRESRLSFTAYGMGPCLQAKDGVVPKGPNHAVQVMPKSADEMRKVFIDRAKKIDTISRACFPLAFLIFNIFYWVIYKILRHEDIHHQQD

α3 GlyR [2] = target: T1, α3 GlyR; experiment: whole-cell patch clamp, glycine currents; format: cell-based

C=C(C)[C@@H]1CCC(C)=C[C@H]1c1c(O)cc(CCCCC)cc1O [CBD, cannabidiol]
% potentiation at 1 μM (α3 GlyR [1]): 491 ± 101%

NCC(=O)O [glycine]
EC50 (α3 GlyR [2]): 377 ± 45 µM
